Measurements: ChEMBL document CHEMBL1145021, “First X-ray cocrystal structure of a bacterial FabH condensing enzyme and a small molecule inhibitor achieved using rational design and homology modeling” (J Med Chem, 2003)

Experiments:
[1] = Inhibitory activity against Escherichia coli Beta-ketoacyl-ACP synthase III (initiator of the fatty acid synthesis)
[2] = Inhibitory activity against Streptococcus pneumoniae Beta-ketoacyl-ACP synthase III (initiator of the fatty acid synthesis)
[3] = Inhibitory activity against Streptococcus pneumoniae Beta-ketoacyl-ACP synthase III (FabH) (initiator of the fatty acid synthesis)
[4] = Inhibitory activity against Escherichia coli Beta-ketoacyl-ACP synthase III (FabH) (initiator of the fatty acid synthesis)
[5] = Inhibitory activity against Escherichia coli FabH (initiator of the fatty acid synthesis)
[6] = Inhibitory activity against Streptococcus pneumoniae FabH (initiator of the fatty acid synthesis)

IC50 [3]	IC50 [4]	Structure (SMILES)	also measured
–	–	O=C(O)c1ccc(Cn2c(C(=O)O)cc3cc(OCc4c(Cl)cccc4Cl)ccc32)cc1	IC50 [1]: 2500 nM; IC50 [2]: 200 nM
1200 nM	78000 nM	O=C(O)Cn1c(C(=O)O)cc2cc(OCc3c(Cl)cccc3Cl)ccc21	–
140 nM	–	O=C(O)CCCCCn1c(C(=O)O)cc2cc(OCc3c(Cl)cccc3Cl)ccc21	–
–	–	O=C(O)c1cc2cc(OCc3c(Cl)cccc3Cl)ccc2n1Cc1cc2c(cc1Cl)OCO2	IC50 [5]: 830 nM; IC50 [6]: 40 nM
–	–	O=C(O)c1cc2cc(OCc3c(Cl)cccc3Cl)ccc2n1Cc1ccc(O)cc1	IC50 [5]: 2000 nM; IC50 [6]: 53 nM
62 nM	1700 nM	O=C(O)CCCn1c(C(=O)O)cc2cc(OCc3c(Cl)cccc3Cl)ccc21	–
46 nM	4600 nM	O=C(CCCCCn1c(C(=O)O)cc2cc(OCc3c(Cl)cccc3Cl)ccc21)NS(=O)(=O)c1ccccc1	–
170 nM	2000 nM	O=C(O)CCCCCCn1c(C(=O)O)cc2cc(OCc3c(Cl)cccc3Cl)ccc21	–
